The experiment relates to CD4+CD25+FoxP3+ regulatory T cells and CD8+ T cells. In words: Flow cytometry of CD8+ T cell and Treg subsets during an immunochemotherapy cycle. The settings on record: day 12 of temozolomide cycle (5/21 schedule), vaccine on day 19. Format: in vivo, human. From the text: To characterize the response of the various T cell populations during a cycle of temozolomide (5/21 schedule) and concurrently administered vaccine (day 19 on this example), we obtained peripheral blood on days 0, 3, 5, 12, 19, 23, 25 and 26. By flow analysis cytometry, we investigated the percentage of the CD8+ T cell and CD4+CD25+FoxP3+ regulatory T cells subsets during an immunochemotherapy cycle. All fluorescence-conjugated monoclonal antibodies (mAb) (PerCP-Cy5.5-CD3, FITC-CD8, APC-CD4 and PE-CD25) were purchased from BD Biosciences except the FITC-labeled mAb of FoxP3 was made by eBioscience. The surface and intracellular staining of peripheral blood cells were performed according to the standard procedures provided by the manufacturer. Results were analyzed by FACSCalibur flow cytometer using Cellquest Pro software (BD Biosciences). In contrast to the decline of the CD8+ T cell subset, the Treg population started to increase after the administration of temozolomide for 3 days and reached its peak (0.9% of total CD4^+ T cells) on day 12. The Tregs then began to drop until day 23 while the CD8^+ T cell numbers started to recover. At the end of the course, both of CD8^+ T cell and Treg populations recovered to pre-treatment levels.

Consider `Cn1nnc2c(C(N)=O)ncn2c1=O` [temozolomide], for which the Treg population peak is given as 0.9 % of total CD4+ T cells.
